Reference: patent US20070259866A1, “Method of Adenovirus, HIV and HPV Prophylaxis” (priority 1999, published 2007)
Values joined by “and” are separate entries in the source; they are usually repeats but may differ in a detail not shown here. Identical values can stand only once. “Also recorded” adds a separate entry of the source.

Experiments:
[1] = tested on: NL-HX-ADA (macrophage-tropic isolate) Virus; experiment: Inactivation of HIV stock by 1 hr drug treatment, then PBMC infection, fluorescent focus assay (NL-HX-ADA); type: cell-based, Human Immunodeficiency Virus (HIV); conditions: for Average # infected cells/area / # infected cells/area (~500 cells): 4 days; for # infected cells/area (~500 cells): single area counts
Experimental: In a study of the prophylactic effects of Compound 96 on Human Immunodeficiency Virus (HIV), virus stock solutions were inactivated by treatment with Compound 96. Stock solutions of viral types NL-HX-ADA having a p24 concentration of 4.1 μg/ml and NL-HX (P122) having a p24 concentration of 3.8 μg/ml were used for the study, along with a stock solution of Compound 96 having a concentration of 20 mg/ml in RPMI media.
Concentrated stock solution of viruses were treated for 1 hr with equal volume of medium containing the drug at the following concentrations:
(§1) After the 1 hr treatment period, the virus-drug solutions were diluted 1:1,000 with complete medium, and then mixed with an equal volume of Peripheral Blood Mononucleocyte (PBMC) cells, for a final dilution of virus and drug of 1:4,000.
(§2) The infected cultures were then incubated without any washing or other changes in media for 4 days (for the M-tropic NL-HX-ADA type) and 8 days (for the T-tropic NL-HX type). The cultures were then assayed for infection using standard fluorescent focus assays to quantitate infected cells.

[2] = tested on: NL-HX-ADA (macrophage-tropic isolate) Virus; experiment: Control infections: untreated NL-HX-ADA virus added to PBMC cultures containing the final dilution of the drug; type: cell-based, Human Immunodeficiency Virus (HIV); conditions: for Control culture: # infected cells/area (~500 cells) / Control culture: Average # infected cells/area: untreated virus; for Control culture: # infected cells/area (~500 cells): single area counts
Experimental: as §1, §2
Control infections were performed by adding untreated viruses at a p24 concentration of 1 ng/ml into cultures containing the final dilution of the drug. This controlled for any residual effect the diluted drug may have on the health of the PBMC culture and their ability to replicate virus.

adenovirus = experiment: Inhibition of adenovirus infection in A549 cells in vitro; type: cell-based
Description: Compound 96 inhibited adenovirus infection 67% in A549 cells in vitro.

[3] = Mouse mortality, survival and weight change in the HPV-11 xenograft SCID mouse experiment; type: in vivo, scid/scid mice; conditions: for Mouse Status at the end of the Experiment: Alive / Mouse Status at the end of the Experiment: Dead: of 12 mice
Description: Each experiment was done in quadruplicate. Twelve mice were used in each replicate. For each replicate, the four treatment groups were made of 3 mice (3 animals per cage). Each mouse received under the skin of each flank one HPV-11-infected foreskin fragment. Two foreskin donors were used, one for the fragments implanted under the left flank and a different one for the fragments implanted under the right flank. The HPV-11-infected grafts were left to grow for 12 weeks, while the mice weights were monitored every other week. At the end of the 12 weeks, the animals were sacrificed and the grafts recovered, measured and processed.
Six to 7 week old male scid/scid mice were used
The animals were monitored weekly. They were weighed at the time of grafting, and every other week during the 12 weeks of the experiment.
Animals were to be prematurely euthanitized if during monitoring any of the following criteria were met: • greater than 10% weight loss; • bleeding or bruising; • inability to maintain righting reflex; • inability to move about; • inability to eat or drink; • tumor greater than 30% of the animal's body weight.
The animals were otherwise sacrificed by cervical dislocation 12 weeks after graft implantation. Length, width, and height of the graft were measured and recorded. The graft were then removed and split in at least two parts. One part was fixed in buffered formalin. The other part was either left as is, or subdivided for subsequent analyses in as many fragments as size permitted. These fragments were placed in a sterile labelled vial and frozen in liquid nitrogen before being transferred to a −80° C. freezer.
Those animals dying unexpectedly before the date of the scheduled euthanasia had their grafts measured and fixed in formalin, if body decomposition was not too advanced.

[4] = virus treated 1 hr at 0.625 mg/ml
[5] = virus treated 1 hr at 1.25 mg/ml
[6] = virus treated 1 hr at 2.5 mg/ml

Compound: CC1=CC(C)=[N+]2CC[N+]3=C(C)C=C(C)[O][Co-4]23([n+]2cc[nH]c2C)([n+]2cc[nH]c2C)[O]1.[Br-] [Compound 96]
- reduction in infectivity ([1]; any drug-treated sample vs control infection (800-1200 infected cells per well)): ≥ 1,000 fold
- infected cells when the entire well was scanned ([1]; any of the drug-treated samples): No infected cells were detected
- inactivation of treated virus ([1]; even at the lowest concentration of drug tested (0.625 mg/ml), 1 hr treatment): completely inactivated
- Average # infected cells/area [1, 4]: 0 cells/area
- # infected cells/area (~500 cells) [1, 4]: 0 cells/area
- Average # infected cells/area [1, 5]: 0 cells/area
- # infected cells/area (~500 cells) [1, 5]: 0 cells/area
- Average # infected cells/area [1, 6]: 0 cells/area
- # infected cells/area (~500 cells) [1, 6]: 0 cells/area
- Average # infected cells/area ([1]; virus treated 1 hr at 5 mg/ml): 0 cells/area
- # infected cells/area (~500 cells) ([1]; virus treated 1 hr at 5 mg/ml): 0 cells/area
- Average # infected cells/area ([1]; virus treated 1 hr at 10 mg/ml): 0 cells/area
- # infected cells/area (~500 cells) ([1]; virus treated 1 hr at 10 mg/ml): 0 cells/area
- toxicity or inhibition in control cultures receiving the diluted drugs ([2]; even at the highest concentration tested (5 μg/ml)): No toxicity or inhibition
- Control culture: # infected cells/area (~500 cells) ([2]; culture with final dilution of the 0.625 mg/ml (residual 0.3 μg/ml)): 17 cells/area and 16 cells/area and 18 cells/area
- Control culture: # infected cells/area (~500 cells) ([2]; culture with final dilution of the 1.25 mg/ml (residual 0.6 μg/ml)): 16 cells/area and 15 cells/area and 17 cells/area and 18 cells/area
- Control culture: # infected cells/area (~500 cells) ([2]; culture with final dilution of the 2.5 mg/ml column (residual 1.25 μg/ml)): 17 cells/area and 18 cells/area and 15 cells/area and 16 cells/area
- Control culture: # infected cells/area (~500 cells) ([2]; culture with final dilution of the 5 mg/ml column (residual 2.5 μg/ml)): 16 cells/area and 17 cells/area and 15 cells/area and 18 cells/area
- Control culture: # infected cells/area (~500 cells) ([2]; culture with final dilution of the 10 mg/ml column (residual 5 μg/ml)): 15 cells/area and 16 cells/area and 17 cells/area
- Control culture: Average # infected cells/area ([2]; final dilution of the 0.625 mg/ml column (residual 0.3 μg/ml)): 16.50 cells/area
- Control culture: Average # infected cells/area ([2]; final dilution of the 1.25 mg/ml column (residual 0.6 μg/ml)): 16.38 cells/area
- Control culture: Average # infected cells/area ([2]; final dilution of the 2.5 mg/ml column (residual 1.25 μg/ml)): 16.50 cells/area
- Control culture: Average # infected cells/area ([2]; final dilution of the 5 mg/ml column (residual 2.5 μg/ml)): 16.25 cells/area
- Control culture: Average # infected cells/area ([2]; final dilution of the 10 mg/ml column (residual 5 μg/ml)): 16.00 cells/area
- inhibited adenovirus infection (adenovirus): 67%
- Mouse Survival, Lower Quartile ([3]; CTC 96 0.05%): 84.00 days
- Mouse Survival, Means ([3]; CTC 96 0.05%): 83.167 days
- Mouse Survival, Median ([3]; CTC 96 0.05%): 84.00 days
- Mouse Survival, Upper Quartile ([3]; CTC 96 0.05%): 84.00 days
- Mouse Weight Changes during the Experiment, Lower Quartile ([3]; CTC 96 0.05%): 12.32%
- Mouse Weight Changes during the Experiment, Means ([3]; CTC 96 0.05%): 13.12%
- Mouse Weight Changes during the Experiment, Median ([3]; CTC 96 0.05%): 14.16%
- Mouse Weight Changes during the Experiment, Upper Quartile ([3]; CTC 96 0.05%): 15.62%
- Mouse Status at the end of the Experiment: Alive ([3]; CTC 96 0.05%): 11
- Mouse Status at the end of the Experiment: Dead ([3]; CTC 96 0.05%): 1
- Mouse Survival, Lower Quartile ([3]; CTC 96 0.2%): 57.50 days
- Mouse Survival, Means ([3]; CTC 96 0.2%): 69.83 days
- Mouse Survival, Median ([3]; CTC 96 0.2%): 84.00 days
- Mouse Survival, Upper Quartile ([3]; CTC 96 0.2%): 84.00 days
- Mouse Weight Changes during the Experiment, Lower Quartile ([3]; CTC 96 0.2%): 11.48%
- Mouse Weight Changes during the Experiment, Means ([3]; CTC 96 0.2%): 15.77%
- Mouse Weight Changes during the Experiment, Median ([3]; CTC 96 0.2%): 11.77%
- Mouse Weight Changes during the Experiment, Upper Quartile ([3]; CTC 96 0.2%): 24.80%
- Mouse Status at the end of the Experiment: Alive ([3]; CTC 96 0.2%): 8
- Mouse Status at the end of the Experiment: Dead ([3]; CTC 96 0.2%): 4
- Mouse Survival, Lower Quartile ([3]; CTC 96 1%): 84.00 days
- Mouse Survival, Means ([3]; CTC 96 1%): 84.00 days
- Mouse Survival, Median ([3]; CTC 96 1%): 84.00 days
- Mouse Survival, Upper Quartile ([3]; CTC 96 1%): 84.00 days
- Mouse Weight Changes during the Experiment, Lower Quartile ([3]; CTC 96 1%): 5.926%
- Mouse Weight Changes during the Experiment, Means ([3]; CTC 96 1%): 9.96%
- Mouse Weight Changes during the Experiment, Median ([3]; CTC 96 1%): 9.00%
- Mouse Weight Changes during the Experiment, Upper Quartile ([3]; CTC 96 1%): 12.40%
- Mouse Status at the end of the Experiment: Alive ([3]; CTC 96 1%): 12
- Mouse Status at the end of the Experiment: Dead ([3]; CTC 96 1%): 0
- effect on mouse weight gain ([3]; all treatment groups, drug used only to inactivate HPV-11 in vitro): no effect
- effect on mouse mortality (number of deaths, length of survival) ([3]; all treatment groups, drug used only to inactivate HPV-11 in vitro, listed as CTC 96): no differences among the treatment groups; also recorded: no effect
